Reference: patent US11529436B2, “Engineered three-dimensional skin tissues, arrays thereof, and methods of making the same” (Organovo, Inc., priority 2014, dated 2022)
Like-named read-outs stand apart in the source and are kept apart here.

What was measured:
Type in all cases: cell-based, human
[1] = system: bioprinted full thickness skin tissue; assay: Histological analysis of bioprinted skin tissue after irritant treatment (H&E, CK5/IVL, CK10, collagen 3, PCNA, TUNEL); conditions: 1% TRITON X-100, 1 hour exposure
Excerpt: (§1) Bio-ink was generated by a cellular mixture of 100% primary adult human dermal fibroblasts (HDFa) in 8% gelatin (NOVOGEL 2.0) at a concentration of 100 million cells per milliliter. The cell: gelatin ratio was altered to reduce the cellular density of the dermal sheet to better mimic dermal tissue in native skin. Three-dimensional bio-ink constructs were printed by continuous deposition using the NOVOGEN BIOPRINTER platform in a 4 mm×4 mm×0.5 mm base to create a dermal structure resembling a sheet. One tissue construct was printed per transwell in a 6-well plate. The transwell printing surface contained a polytetrafluoroethylene (PTFE) membrane coated with equimolar mixture of types I and III collagen (bovine) with pores 3 μm in size. Epidermal cell paste containing a mixture of 100% primary neonatal human epidermal keratinocytes (HEKn) was then printed on top of the dermal bio-ink. Cell paste was measured post print at 87.1% viable by trypan exclusion assay. Cell numbers in the deposited epidermal layer was estimated at 60,000 cells by cell counting on a Cell-O-Meter. Immediately following the print, constructs were placed at 4° C. for 10 minutes. Cold media was then added to the outer well of the transwell in a volume of 3 ml. The media used for subsequent growth and maintenance of the skin tissue was a 50:50 ratio of HDFa: HEKn media. The initial volume added was sufficient to submerge the structure. All subsequent media changes used warmed media (37° C.) added to the outer well of the transwell and not to the inner basket. Media was changed 48 hours later and reduced to a volume of 1.5 ml per well to bring the structure to an air-liquid interface (ALI). Media and subsequently changed 48 hours after that (day 4) at a volume of 1.5 ml. On day 5, media was changed and further reduced to 1 ml per well and subsequently changed daily. On day 10, skin tissues were subject to a skin irritation test method using 1% TRITON X-100. 1% TRITON X-100 is a known irritant and reference chemical currently used in other 3D skin models. Methods were based on OECD guidelines 439 and 431 for applying human skin models to in vitro skin irritation or corrosion, respectively. On day 10, conditioned media was saved (designated time=0) and 1 ml of fresh media was added to the outer well of the transwell. The printed skin tissue was then treated with 20 μl of PBS as a negative control or with 20 μl of 1% TRITON X-100 as a positive control and known irritant. Test substances were pipetted manually to the apical surface of the tissue. TRITON X-100 was diluted to a 1% aqueous solution in deionized water and sterile filtered through a 20 micron filter before use. Samples were incubated for 30 minutes at 37° C. followed by 30 minutes at room temperature for a total of 60 minutes. Media was saved (designated time=1 hour). Samples were then washed extensively by PBS rinsing. Transwells were then placed in a new 6-well plate with fresh media (1 ml) added to the outer well then placed back into 37° C. overnight. The media was then changed at 24 hours and at 48 hours post treatment. Total media collected included time points=−48, 0, 1, 24, and 48 hours. IL-1α production (R&D Systems) was analyzed in a colorimetric assays per manufacturer's protocol. Media was analyzed for lactate dehydrogenase as a marker for cytotoxicity. IL-1α production was assessed as a complementary endpoint to classic cytotoxicity testing to improve predictability of irritants. Keratinocytes normally produce and release inflammatory cytokine IL-1α in response to chemical or physical stress. At 48 hours post treatment (day 12), tissues were either lysed for RNA extraction and subsequent qPCR analysis, or tested for viability by alamar blue assay then rinsed in PBS and fixed with 2% PFA for histological analysis. Alamar blue (Life Technologies) was added per manufacturer's instructions to media and incubated with tissue constructs (1 ml) at 37° C. for 3 hours. […]

[2] = system: bioprinted full thickness skin tissue; assay: Gene expression (qPCR) analysis of bioprinted skin tissue after irritant treatment; conditions: 1% TRITON X-100, 1 hour exposure
Excerpt: as §1, with “Test substances were pipetted manually to the apical surface of the tissue. TRITON X-100 was diluted to a 1% aqueous solution in deionized water and sterile filtered through a 20 micron filter before use. Samples were incubated for 30 minutes at 37° C. followed by 30 minutes at room temperature for a total of 60 minutes. Media was saved (designated time=1 hour). Samples were then washed extensively by PBS rinsing. Transwells were then placed in a new 6-well plate with fresh media (1 ml) added to the outer well then placed back into 37° C. overnight. The media was then changed at 24 hours and at 48 hours post treatment. Total media collected included time points=−48, 0, 1, 24, and 48 hours.” left out, “irritants.” for “irritants. Keratinocytes normally produce and release inflammatory cytokine IL-1α in response to chemical or physical stress. At 48 hours post treatment (day 12), tissues were either lysed for RNA extraction and subsequent qPCR analysis, or tested for viability by alamar blue assay then rinsed in PBS and fixed with 2% PFA for histological analysis. Alamar blue (Life Technologies) was added per manufacturer's instructions to media and incubated with tissue constructs (1 ml) at 37° C. for 3 hours.”

[3] = system: bioprinted full thickness skin tissue; assay: IL-1α production in media of bioprinted skin tissue (colorimetric assay), skin irritation test
Excerpt: as §1, with “One tissue construct was printed per transwell in a 6-well plate.” left out, “Samples were incubated for 30 minutes at 37° C. followed by 30 minutes at room temperature for a total of 60 minutes.” left out, “Transwells were then placed in a new 6-well plate with fresh media (1 ml) added to the outer well then placed back into 37° C. overnight.” left out, “[…] Viability was measured as fluorescence in the media” for “At 48 hours post treatment (day 12), tissues were either lysed for RNA extraction and subsequent qPCR analysis, or tested for viability”, “conversion of resazurin” for “alamar blue assay then rinsed in PBS and fixed with 2% PFA for histological analysis. Alamar blue (Life Technologies) was added per manufacturer's instructions”, “resorufin.” for “media and incubated with tissue constructs (1 ml) at 37° C. for 3 hours.”

[4] = system: bioprinted full thickness skin tissue; assay: Lactate dehydrogenase (LDH) activity in media of bioprinted skin tissue, skin irritation test
Excerpt: Bio-ink was generated by a cellular mixture of 100% primary adult human dermal fibroblasts (HDFa) in 8% gelatin (NOVOGEL 2.0) at a concentration of 100 million cells per milliliter. The cell: gelatin ratio was altered to reduce the cellular density of the dermal sheet to better mimic dermal tissue in native skin. Three-dimensional bio-ink constructs were printed by continuous deposition using the NOVOGEN BIOPRINTER platform in a 4 mm×4 mm×0.5 mm base to create a dermal structure resembling a sheet. […] The transwell printing surface contained a polytetrafluoroethylene (PTFE) membrane coated with equimolar mixture of types I and III collagen (bovine) with pores 3 μm in size. Epidermal cell paste containing a mixture of 100% primary neonatal human epidermal keratinocytes (HEKn) was then printed on top of the dermal bio-ink. Cell paste was measured post print at 87.1% viable by trypan exclusion assay. Cell numbers in the deposited epidermal layer was estimated at 60,000 cells by cell counting on a Cell-O-Meter. Immediately following the print, constructs were placed at 4° C. for 10 minutes. Cold media was then added to the outer well of the transwell in a volume of 3 ml. The media used for subsequent growth and maintenance of the skin tissue was a 50:50 ratio of HDFa: HEKn media. The initial volume added was sufficient to submerge the structure. All subsequent media changes used warmed media (37° C.) added to the outer well of the transwell and not to the inner basket. Media was changed 48 hours later and reduced to a volume of 1.5 ml per well to bring the structure to an air-liquid interface (ALI). Media and subsequently changed 48 hours after that (day 4) at a volume of 1.5 ml. […] IL-1α production (R&D Systems) was analyzed in a colorimetric assays per manufacturer's protocol. Media was analyzed for lactate dehydrogenase as a marker for cytotoxicity. IL-1α production was assessed as a complementary endpoint to classic cytotoxicity testing to improve predictability of irritants. […] Viability was measured as fluorescence in the media by conversion of resazurin to resorufin. […]

[5] = system: bioprinted full thickness skin tissue; assay: Viability of bioprinted skin tissue by alamar blue assay, skin irritation test
Excerpt: Bio-ink was generated by a cellular mixture of 100% primary adult human dermal fibroblasts (HDFa) in 8% gelatin (NOVOGEL 2.0) at a concentration of 100 million cells per milliliter. The cell: gelatin ratio was altered to reduce the cellular density of the dermal sheet to better mimic dermal tissue in native skin. Three-dimensional bio-ink constructs were printed by continuous deposition using the NOVOGEN BIOPRINTER platform in a 4 mm×4 mm×0.5 mm base to create a dermal structure resembling a sheet. […] The transwell printing surface contained a polytetrafluoroethylene (PTFE) membrane coated with equimolar mixture of types I and III collagen (bovine) with pores 3 μm in size. Epidermal cell paste containing a mixture of 100% primary neonatal human epidermal keratinocytes (HEKn) was then printed on top of the dermal bio-ink. Cell paste was measured post print at 87.1% viable by trypan exclusion assay. Cell numbers in the deposited epidermal layer was estimated at 60,000 cells by cell counting on a Cell-O-Meter. Immediately following the print, constructs were placed at 4° C. for 10 minutes. Cold media was then added to the outer well of the transwell in a volume of 3 ml. The media used for subsequent growth and maintenance of the skin tissue was a 50:50 ratio of HDFa: HEKn media. The initial volume added was sufficient to submerge the structure. All subsequent media changes used warmed media (37° C.) added to the outer well of the transwell and not to the inner basket. Media was changed 48 hours later and reduced to a volume of 1.5 ml per well to bring the structure to an air-liquid interface (ALI). Media and subsequently changed 48 hours after that (day 4) at a volume of 1.5 ml. On day 5, media was changed and further reduced to 1 ml per well and subsequently changed daily. On day 10, skin tissues were subject to a skin irritation test method using 1% TRITON X-100. 1% TRITON X-100 is a known irritant and reference chemical currently used in other 3D skin models. Methods were based on OECD guidelines 439 and 431 for applying human skin models to in vitro skin irritation or corrosion, respectively. On day 10, conditioned media was saved (designated time=0) and 1 ml of fresh media was added to the outer well of the transwell. The printed skin tissue was then treated with 20 μl of PBS as a negative control or with 20 μl of 1% TRITON X-100 as a positive control and known irritant. […] IL-1α production (R&D Systems) was analyzed in a colorimetric assays per manufacturer's protocol. Media was analyzed for lactate dehydrogenase as a marker for cytotoxicity. IL-1α production was assessed as a complementary endpoint to classic cytotoxicity testing to improve predictability of irritants. […] Viability was measured as fluorescence in the media by conversion of resazurin to resorufin. […]

[6] = 48 hours post treatment (day 12)
[7] = 1% TRITON X-100, 1 hour exposure, 48 hours post treatment

TRITON X-100
irritancy to bioprinted skin suggested by histology [1]: irritant | CK5 positive basal keratinocyte layer [1, 6]: fragmented | Collagen 3 staining compared to the PBS control [1, 6]: reduction in dermal fibroblast function | H&E histology [1, 6]: separation of the epidermal and dermal layers | macroscopic appearance of treated tissues [1, 6]: appeared similar to PBS control tissues macroscopically | proliferation by PCNA staining ([1]; dermal fibroblasts and basal layer, day 12): reduction in proliferation | apoptosis by TUNEL staining ([1]; dermal layer, day 12): increase in apoptosis | CK1 and CK10 gene expression ([2]; 48 hours post exposure): reduced | collagen production of types 1, 3, and 4 collagen (gene expression) ([2]; 48 hours post exposure): reduced | expression of both epidermal and dermal markers ([2]; 48 hours post exposure): dramatically reduces | IL1α gene expression increase in comparison to the PBS control ([2]; 48 hours post treatment): about 3 fold | IL-1α levels ([3]; 1% TRITON X-100, 1 hour exposure, 24 hours post treatment): remained high | IL-1α levels [3, 7]: returned to baseline | IL-1α activity in comparison to PBS control ([3]; 1% TRITON X-100, 1 hour exposure, greatest difference 1 hour post treatment): increased | IL-1α production ([3]; 15 minute exposure, 5% SDS or 1% TRITON X-100, 24 well plate format): induced | induction in LDH activity compared to PBS control ([4]; 1% TRITON X-100, 1 hour exposure, 6-well format, at 1 hour, 24 hours and 48 hours post treatment): roughly 2 fold | LDH activity higher than PBS ([4]; 15 minute exposure, 5% SDS or 1% TRITON X-100, 24 well plate format, 42 hours post exposure): about 1.4 fold | reduction in viability as compared to the PBS control (alamar blue) [5, 7]: 80% | viability compared to the PBS control (alamar blue assay) ([5]; 15 minute exposure, 5% SDS or 1% TRITON X-100, 24 well plate format, 42 hours post treatment): 68.75%

CCCCCCCCCCCCOS(=O)(=O)[O-].[Na+] [SDS]
IL-1α production [3]: much stronger response | LDH activity higher than PBS [4]: about 1.7 fold | irritancy under these testing conditions, 5% SDS versus 1% TRITON X-100 [5]: much stronger irritant | viability compared to the PBS control (alamar blue assay) [5]: 2.45%
